From article PMC9516332 (Frontiers in Oncology, 2022)
Read-outs that look alike come from different tables or passages of the source.

Test system: 134 cancer cell lines
Assay: Cell viability assay (ATPlite, 72 hours), IC50 on cancer cell line panel

Q: With `COc1cc2ncnc(Nc3ccc(F)c(Cl)c3)c2cc1NC(=O)/C=C/CN1CCCCC1` [dacomitinib] as the compound, how does the “lower IC50 of the most sensitive cell line compared to the panel average” value (134 cell line panel) read?
A: more than 1000 fold

Q: And the IC50 (HEC-6, read-out: IC50 in cell proliferation assay, HEC-6 cell line (EGFR p.A289V))?
A: 2.51 µM

Q: What about the IC50 (Homo sapiens, 769-P, read-out: IC50 in cell proliferation assay, cell line 769-P) of the same compound?
A: 0.032 µM

Q: What about the IC50 (Homo sapiens, 786-0, read-out: IC50 in cell proliferation assay, cell line 786-O) of the same compound?
A: 3.04 µM

Q: What about the IC50 (Homo sapiens, A 172, read-out: IC50 in cell proliferation assay, cell line A-172) of the same compound?
A: 3.62 µM

Q: What about the IC50 (Homo sapiens, A204, read-out: IC50 in cell proliferation assay, cell line A-204) of the same compound?
A: 2.51 µM

Q: And the IC50 (Homo sapiens, A498, read-out: IC50 in cell proliferation assay, cell line A-498)?
A: 2.57 µM

Q: What about the IC50 (Homo sapiens, A549, read-out: IC50 in cell proliferation assay, cell line A-549) of the same compound?
A: 6.63 µM

Q: And the IC50 (Homo sapiens, A704, read-out: IC50 in cell proliferation assay, cell line A-704)?
A: 3.91 µM

Q: And the IC50 (Homo sapiens, A-375, read-out: IC50 in cell proliferation assay, cell line A-375 (BRAF p.V600E))?
A: 3.46 µM

Q: What about the IC50 (Homo sapiens, A-427, read-out: IC50 in cell proliferation assay, cell line A-427) of the same compound?
A: 2.89 µM

Q: And the IC50 (Homo sapiens, ACHN, read-out: IC50 in cell proliferation assay, cell line ACHN)?
A: 0.011 µM

Q: And the IC50 (Homo sapiens, AN3-CA, read-out: IC50 in cell proliferation assay, cell line AN3-CA (FGFR2 p.N549K))?
A: 3.75 µM

Q: What about the IC50 (Homo sapiens, ASPC1, read-out: IC50 in cell proliferation assay, cell line AsPC-1) of the same compound?
A: 5.82 µM

Q: And the IC50 (Homo sapiens, AU565, read-out: IC50 in cell proliferation assay, cell line AU565 (ERBB2 amplification))?
A: 0.068 µM

Q: And the IC50 (Homo sapiens, BT-20, read-out: IC50 in cell proliferation assay, cell line BT-20)?
A: 5.62 µM

Q: What about the IC50 (Homo sapiens, BT-474, read-out: IC50 in cell proliferation assay, cell line BT-474 (ERBB2 amplification)) of the same compound?
A: 0.037 µM

Q: And the IC50 (Homo sapiens, BT-549, read-out: IC50 in cell proliferation assay, cell line BT-549)?
A: 3.68 µM

Q: What about the IC50 (Homo sapiens, BXPC-3, read-out: IC50 in cell proliferation assay, cell line BxPC-3) of the same compound?
A: 4.06 µM

Q: What about the IC50 (Homo sapiens, C-33-A, read-out: IC50 in cell proliferation assay, cell line C-33 A) of the same compound?
A: 0.04 µM

Q: And the IC50 (Homo sapiens, CAL-27, read-out: IC50 in cell proliferation assay, cell line CAL-27)?
A: 0.011 µM

Q: And the IC50 (Homo sapiens, CCF-STTG1, read-out: IC50 in cell proliferation assay, cell line CCF-STTG1)?
A: 5.61 µM

Q: And the IC50 (Homo sapiens, CCRF-CEM, read-out: IC50 in cell proliferation assay, cell line CCRF-CEM)?
A: 3.27 µM

Q: What about the IC50 (Homo sapiens, COLO 205, read-out: IC50 in cell proliferation assay, cell line COLO 205 (BRAF p.V600E)) of the same compound?
A: 4.28 µM

Q: And the IC50 (Homo sapiens, COLO-829, read-out: IC50 in cell proliferation assay, cell line COLO 829 (BRAF p.V600E))?
A: 6.02 µM

Q: What about the IC50 (Homo sapiens, DLD-1, read-out: IC50 in cell proliferation assay, cell line DLD-1) of the same compound?
A: 3.24 µM

Q: And the IC50 (Homo sapiens, DU-4475, read-out: IC50 in cell proliferation assay, cell line DU4475 (BRAF p.V600E))?
A: 5.24 µM

Q: What about the IC50 (Homo sapiens, Daoy, read-out: IC50 in cell proliferation assay, cell line Daoy) of the same compound?
A: 3.77 µM

Q: And the IC50 (Homo sapiens, DoTc2-4510, read-out: IC50 in cell proliferation assay, cell line DoTc2 4510)?
A: 0.012 µM

Q: And the IC50 (Homo sapiens, EOL1, read-out: IC50 in cell proliferation assay, cell line EoL-1 (FIP1L1-PDGFRA))?
A: 0.72 µM

Q: What about the IC50 (Homo sapiens, FaDu, read-out: IC50 in cell proliferation assay, cell line FaDu) of the same compound?
A: 0.013 µM

Q: And the IC50 (Homo sapiens, G-361, read-out: IC50 in cell proliferation assay, cell line G-361 (BRAF p.V600E))?
A: 4.11 µM

Q: What about the IC50 (Homo sapiens, HCC827, read-out: IC50 in cell proliferation assay, cell line HCC827 (EGFR exon19del)) of the same compound?
A: 0.00113 µM

Q: And the IC50 (Homo sapiens, HCC4006, read-out: IC50 in cell proliferation assay, cell line HCC4006 (EGFR exon19del))?
A: 0.00119 µM

Q: What about the IC50 (Homo sapiens, HCT-15, read-out: IC50 in cell proliferation assay, cell line HCT 15) of the same compound?
A: 3.45 µM

Q: And the IC50 (Homo sapiens, HCT-116, read-out: IC50 in cell proliferation assay, cell line HCT 116)?
A: 2.3 µM

Q: What about the IC50 (Homo sapiens, HEC-1, read-out: IC50 in cell proliferation assay, HEC-1 cell line) of the same compound?
A: 1.91 µM

Q: And the IC50 (Homo sapiens, HEC-1B, read-out: IC50 in cell proliferation assay, HEC-1-B cell line (EGFR p.A864V))?
A: 0.014 µM

Q: And the IC50 (Homo sapiens, HL-60, read-out: IC50 in cell proliferation assay, HL-60 cell line)?
A: 1.74 µM

Q: What about the IC50 (Homo sapiens, HT, read-out: IC50 in cell proliferation assay, HT cell line) of the same compound?
A: 3.76 µM

Q: What about the IC50 (Homo sapiens, HT-1080, read-out: IC50 in cell proliferation assay, HT-1080 cell line) of the same compound?
A: 2.79 µM

Q: What about the IC50 (Homo sapiens, Hs746T, read-out: IC50 in cell proliferation assay, Hs 746.T cell line (MET exon14skip + amplification)) of the same compound?
A: 3.12 µM

Q: What about the IC50 (Homo sapiens, Hs-578T, read-out: IC50 in cell proliferation assay, Hs 578T cell line) of the same compound?
A: 3.09 µM

Q: What about the IC50 (Homo sapiens, HuTu80, read-out: IC50 in cell proliferation assay, HuTu 80 cell line) of the same compound?
A: 4.06 µM

Q: And the IC50 (Homo sapiens, J82, read-out: IC50 in cell proliferation assay, J82 cell line)?
A: 3.95 µM

Q: What about the IC50 (Homo sapiens, Jurkat E6.1, read-out: IC50 in cell proliferation assay, Jurkat E6.1 cell line) of the same compound?
A: 3.18 µM

Q: What about the IC50 (Homo sapiens, K562, read-out: IC50 in cell proliferation assay, K-562 cell line) of the same compound?
A: 3.44 µM

Q: What about the IC50 (Homo sapiens, KATO III, read-out: IC50 in cell proliferation assay, KATO III cell line (FGFR2 amplification)) of the same compound?
A: 2.96 µM

Q: And the IC50 (Homo sapiens, KG-1, read-out: IC50 in cell proliferation assay, KG-1 cell line (FGFR1OP2-FGFR1))?
A: 2.57 µM

Q: What about the IC50 (Homo sapiens, KLE, read-out: IC50 in cell proliferation assay, KLE cell line) of the same compound?
A: 3.44 µM

Q: What about the IC50 (Homo sapiens, KMS-11, read-out: IC50 in cell proliferation assay, KMS-11 cell line (FGFR3 p.Y373C)) of the same compound?
A: 3.54 µM

Q: And the IC50 (Homo sapiens, KU812, read-out: IC50 in cell proliferation assay, Ku812 cell line)?
A: 3.2 µM

Q: And the IC50 (Homo sapiens, Kasumi 1, read-out: IC50 in cell proliferation assay, Kasumi-1 cell line (KIT p.N822K))?
A: 1.63 µM

Q: And the IC50 (Homo sapiens, LC-2-ad, read-out: IC50 in cell proliferation assay, LC-2/ad cell line (CCDC6-RET))?
A: 2.89 µM

Q: And the IC50 (Homo sapiens, LNCaP-Clone-FGC, read-out: IC50 in cell proliferation assay, LNCaP clone FGC cell line)?
A: 7.97 µM

Q: What about the IC50 (Homo sapiens, LS174T, read-out: IC50 in cell proliferation assay, LS174T cell line) of the same compound?
A: 2.67 µM

Q: What about the IC50 (Homo sapiens, LS-411N, read-out: IC50 in cell proliferation assay, LS411N cell line (BRAF p.V600E)) of the same compound?
A: 4.24 µM

Q: And the IC50 (Homo sapiens, LoVo, read-out: IC50 in cell proliferation assay, LoVo cell line)?
A: 4.3 µM

Q: What about the IC50 (Homo sapiens, MCF7, read-out: IC50 in cell proliferation assay, MCF-7 cell line) of the same compound?
A: 12.9 µM

Q: What about the IC50 (Homo sapiens, MDA-MB-231, read-out: IC50 in cell proliferation assay, MDA-MB-231 cell line) of the same compound?
A: 3.69 µM

Q: And the IC50 (Homo sapiens, MDA-MB-453, read-out: IC50 in cell proliferation assay, MDA-MB-453 cell line)?
A: 3.25 µM

Q: And the IC50 (Homo sapiens, MDA-MB-468, read-out: IC50 in cell proliferation assay, MDA-MB-468 cell line)?
A: 0.033 µM

Q: And the IC50 (Homo sapiens, MG-63, read-out: IC50 in cell proliferation assay, MG-63 cell line)?
A: 4 µM

Q: What about the IC50 (Homo sapiens, MIA PaCa-2, read-out: IC50 in cell proliferation assay, MIA PaCa-2 cell line) of the same compound?
A: 3.93 µM

Q: And the IC50 (Homo sapiens, MKN-45, read-out: IC50 in cell proliferation assay, MKN45 cell line (MET amplification))?
A: 4.25 µM

Q: What about the IC50 (Homo sapiens, MOLM-13, read-out: IC50 in cell proliferation assay, MOLM-13 cell line (FLT3 ITD)) of the same compound?
A: 1.17 µM

Q: And the IC50 (Homo sapiens, MOLT-4, read-out: IC50 in cell proliferation assay, MOLT-4 cell line)?
A: 3.64 µM

Q: What about the IC50 (Homo sapiens, MV4-11, read-out: IC50 in cell proliferation assay, MV4-11 cell line (FLT3 ITD)) of the same compound?
A: 0.23 µM

Q: What about the IC50 (Homo sapiens, MeWo, read-out: IC50 in cell proliferation assay, MeWo cell line) of the same compound?
A: 3.92 µM

Q: And the IC50 (Homo sapiens, NCCIT, read-out: IC50 in cell proliferation assay, NCC-IT cell line)?
A: 4.43 µM

Q: What about the IC50 (Homo sapiens, NCI-H82, read-out: IC50 in cell proliferation assay, cell line NCI-H82) of the same compound?
A: 3.91 µM
